Test results: article PMC11876692, “Synthesis, physicochemical characterization and biological activity of novel pyrrole flavones” (Scientific Reports, 2025)

Experiments:
HT-1376 cells = assay: MTT assay, cytotoxicity towards HT-1376 bladder cancer cells; format: cell-based, human
Protocol: (§1) Human urinary bladder grade II carcinoma cell line (5637), human urinary bladder carcinoma (HT-1376), and human lung fibroblasts (MRC-5) were purchased from ATCC (Manassas, VA, USA). The 5637 cells were grown in RPMI, HT-1376 cells were cultured in EMEM, and MRC-5 in DMEM. All media were supplemented with 10% (v/v) FBS, 2 mM L-glutamine, 100 U/mL penicillin, and […] streptomycin (1% v/v). The cells were cultured at 37 °C in a humidified atmosphere with 5% CO2.
(§2) Tested compounds were dissolved in DMSO at a concentration of 10 mM for preliminary study. […] Stock solutions were stored in the dark at -20 °C.
(§3) For the preliminary experiments, the 5637 cells were used. The compounds were prepared in the cell culture medium at a concentration of 0.1 µM, 1 µM, and 10 µM. DMSO was used as a control. […] Cells were treated with compounds for 24, 48, and 72 h. Cells were washed twice with DPBS, and 170 µL of MTT solution at a final concentration of 0.59 mg/mL in culture medium was added. Cells were incubated with MTT solution for 1.5 h at standard cell culture conditions. After incubation, MTT was removed, and formazan crystals were dissolved with 200 µL DMSO. The absorbance was measured at a wavelength of 570 nm using a plate reader (Biotek Instruments, Elx-800, Winooski, VT, USA).
(§4) Subsequently, cells were treated with compound 4a at a concentration of 0.5 µM, 1 µM, 2 µM, 4 µM, 6 µM, and 8 µM and compound 5b at a concentration range of 2 µM, 4 µM, 6 µM, 8 µM,10 µM, and 15 µM for 24 h and 48 h. […] The MTT assay was performed as described above.
(§5) The IC50 values were calculated using the GraphPad Prism 8 software (GraphPad Software, Inc., La Jolla, CA, USA), and cell viability was expressed as a percentage of the control. At least three biological replicates were performed for each compound.

5637 cells = assay: MTT assay, cytotoxicity towards 5637 bladder cancer cells; format: cell-based, human; details: for IC50: Homo sapiens, MTT; for cell viability: preliminary experiment (10 µM implied)
Protocol: as §1, §2, §3, §4, §5

MRC-5 cells = assay: MTT assay, cytotoxicity towards non-cancerous MRC-5 fibroblasts; format: cell-based, human; details: for IC50: Homo sapiens, MTT; for effect on viability of MRC-5 cells: all tested concentrations (2-15 µM), 24 and 48 h
Protocol: as §1, §2, §3, §4, §5

[1] = as above; format: cell-based, human; details: human, MRC-5 lung fibroblasts, MRC-5 cells, 24 h, read-out: cell viability
Protocol: as §1, §2, §3, §4, §5

Aliivibrio fischeri = details: 10 µM
Protocol: All the synthesized derivatives were subjected to the Microtox test. […] The acute toxicity of the tested compounds was measured using the Microtox test. For the measurements, the 81.9% screening test procedure was applied using the Microtox [MUT] apparatus along with the Microtox Omni 4.2 software supplied by the manufacturer (Modern Water plc). Briefly, the bioluminescence of bacterial suspension was measured before the addition of the solution of the tested compound and after 5 and 15 min upon exposure. […] As the control, 2% sodium chloride solution was used (Modern Water Microtox Diluent).

[2] = Homo sapiens, HT-1376, 24 h, 24 h
[3] = Homo sapiens, HT-1376, 48 h, 48 h

SMILES	IC50 (HT-1376 cells; 24 h)	IC50 (HT-1376 cells; [2])	IC50 (HT-1376 cells; [3])	IC50 (5637 cells; 24 h)	IC50 (5637 cells; 48 h)	IC50 (MRC-5 cells; MRC5, 24 h)	IC50 (MRC-5 cells; MRC5, 48 h)	effect on viability of MRC-5 cells (MRC-5 cells)	effect on viability of MRC-5 cells (MRC-5 cells; listed as flavone derivative with 7-(2-methyl-5-phenylpyrrol-1-yl))	viability at 24 h, 6 µM ([1]; 6 µM)	viability at 24 h, 8 µM ([1]; 8 µM)	cell viability (5637 cells; 48 h of incubation)	cell viability (5637 cells; 72 h of incubation)	effect on viability of cancer cells (5637 cells; 10 µM)	decrease in bioluminescence (Aliivibrio fischeri)
Cc1ccc(-c2ccccc2)n1-c1ccc2c(=O)cc(-c3ccccc3)oc2c1 [5b, 7-(2-Methyl-5-phenylpyrrol-1-yl)-2-phenylchromen-4-one]	13.5 ± 1.41 µM	~13 µM	11.7 ± 1.74 µM	7.39 ± 2.02 µM	4.61 ± 0.1 µM	> 15 µM	> 15 µM	did not decrease cell viability	without any effect	–	–	–	–	–	–
Cc1ccc(-c2ccccc2)n1-c1ccc2oc(-c3ccccc3)cc(=O)c2c1 [4b, 6-(2-Methyl-5-phenylpyrrol-1-yl)-2-phenylchromen-4-one]	5.89 ± 1.1 µM	~5 µM	5.37 ± 1.44 µM	2.97 ± 0.17 µM	2.12 ± 0.19 µM	> 8 µM	5.21 ± 0.1 µM	–	–	57%	52%	–	–	–	–
Cc1ccc(C)n1-c1ccc2c(=O)cc(-c3ccccc3)oc2c1 [5a, 7-(2,5-Dimethylpyrrol-1-yl)-2-phenylchromen-4-one]	–	–	–	–	–	–	–	–	–	–	–	75.8%	48%	–	–
Cc1ccc(C)n1-c1ccc2oc(-c3ccccc3)cc(=O)c2c1 [4a, 6-(2,5-Dimethylpyrrol-1-yl)-2-phenylchromen-4-one]	–	–	–	–	–	–	–	–	–	–	–	–	–	did not affect the viability	80%
